≈ marks a conversion by molar mass, not a printed value. Structures can show the parent of a compound that is named as a salt.
Tests used:
Guineapig atrium = test: Positive inotropic effect, isolated electrically stimulated guineapig atrium; type: cell-based; details: Cavia porcellus, 32° C., contractility recorded 7 to 10 minutes
Protocol: Positive inotropic effect
The following method was used:
Guineapigs of both sexes and weighing 400 g are sacrificed, and the heart is removed and placed in Ringer's solution at room temperature. Both the left and the right atria are then isolated and fixed in an organ holder, and the preparation is placed in a bath containing Ringer's solution and maintained at a temperature of 32° C. A mixture of 95% O2 and 5% CO2 is then bubbled through the organ bath and the atrium is electrically stimulated. The compound to be tested is dissolved in water to give a solution of known concentration and is added to the bath. The contractility of the atrium is recorded for 7 to 10 minutes on a Nihon Kohden 4-channel pen recorder with an isometric strain gage. The activity is expressed on the basis of the resulting data as the EC50.
The results obtained in this model are indicated for representative compounds of the invention in Tables III and IV which follow: […]

Blood pressure in cats = test: Test for an antihypertensive effect: blood pressure in cats; type: in vivo; details: anesthetized cats, formula Ia
Protocol: Test for an antihypertensive effect
Cats of both sexes and weighing 3 to 4 kg are anesthetized with ether and maintained under chloralose anesthesia (70 mg/kg i.v.). Cannulas are placed in the femoral artery and femoral vein to record the blood pressure and to administer the medicament, respectively. The blood pressure in the femoral artery is recorded via a Statham P 23 Db pressure transducer on a Nihon-Kohden pen recorder for physiological purposes. The compound to be tested is dissolved in distilled water and administered intravenously. The fall in blood pressure and the duration of the effect lowering blood pressure are noted.

| EC50 (Guineapig atrium; Table IV, formula Ib) | EC50 (Guineapig atrium; Table III, formula Ia) | SMILES | other results |
| --- | --- | --- | --- |
| 0.058 µg/mL (≈ 0.102 µM) | – | C=C[C@@]1(C)CC(=O)[C@]2(O)[C@@]3(C)[C@@H](O)CCC(C)(C)[C@@H]3[C@H](OC(=O)COC(=O)CCN(C)C)[C@H](OC(C)=O)[C@@]2(C)O1 [2 OAc N(CH3)2] | – |
| 0.086 µg/mL (≈ 0.142 µM) | – | C=C[C@@]1(C)CC(=O)[C@]2(O)[C@@]3(C)[C@@H](O)CCC(C)(C)[C@@H]3[C@H](OC(=O)COC(=O)CCN3CCCCC3)[C@H](OC(C)=O)[C@@]2(C)O1 | – |
| – | 1.42 µg/mL (≈ 2.56 µM) | C=C[C@@]1(C)CC(=O)[C@]2(O)[C@@]3(C)[C@@H](O)CCC(C)(C)[C@@H]3[C@H](O)[C@H](OC(=O)COC(=O)CN3CCOCC3)[C@@]2(C)O1 [drawing 51] | – |
| – | > 1 µg/mL | C=C[C@@]1(C)CC(=O)[C@]2(O)[C@@]3(C)[C@@H](O)CCC(C)(C)[C@@H]3[C@H](O)[C@H](OC(=O)COC(=O)CN3CCN(C(=O)OCC)CC3)[C@@]2(C)O1 [drawing 52] | – |
| – | – | C=C[C@@]1(C)CC(=O)[C@]2(O)[C@@]3(C)[C@@H](O)CCC(C)(C)[C@@H]3[C@H](O)[C@H](OC(=O)COC(=O)CN3CCC(c4ccccc4)CC3)[C@@]2(C)O1 [drawing 60] | duration (of fall of B.P.) (Blood pressure in cats; 1 mg/kg i.v.): 45 min; fall of B.P. (Blood pressure in cats; 1 mg/kg i.v.): 60 mm Hg |
| – | – | C=C[C@@]1(C)CC(=O)[C@]2(O)[C@@]3(C)[C@@H](O)CCC(C)(C)[C@@H]3[C@H](O)[C@H](OC(=O)COC(=O)CN3CCN(C)CC3)[C@@]2(C)O1 [drawing 61] | duration (of fall of B.P.) (Blood pressure in cats; 0.1 mg/kg i.v.): 40 min; fall of B.P. (Blood pressure in cats; 0.1 mg/kg i.v.): 20 mm Hg |
| – | – | C=C[C@@]1(C)CC(=O)[C@]2(O)[C@@]3(C)[C@@H](O)CCC(C)(C)[C@@H]3[C@H](O)[C@H](OC(=O)COC(=O)CN(C(C)C)C(C)C)[C@@]2(C)O1 [1 NH[CH(CH3)2]2] | duration (of fall of B.P.) (Blood pressure in cats; 0.1 mg/kg i.v.): 125 min; fall of B.P. (Blood pressure in cats; 0.1 mg/kg i.v.): 25 mm Hg |
| – | 0.1 µg/mL (≈ 0.176 µM) | C=C[C@@]1(C)CC(=O)[C@]2(O)[C@@]3(C)[C@@H](O)CCC(C)(C)[C@@H]3[C@H](O)[C@H](OC(=O)COC(=O)CN3CCN(C)CC3)[C@@]2(C)O1 [drawing 50] | – |
| – | – | C=C[C@@]1(C)CC(=O)[C@]2(O)[C@@]3(C)[C@@H](O)CCC(C)(C)[C@@H]3[C@H](O)[C@H](OC(=O)COC(=O)CN3CCN(C(=O)OCC)CC3)[C@@]2(C)O1 [drawing 63] | duration (of fall of B.P.) (Blood pressure in cats; 0.3 mg/kg i.v.): 30 min; fall of B.P. (Blood pressure in cats; 0.3 mg/kg i.v.): 35 mm Hg |
| – | 0.18 µg/mL (≈ 0.287 µM) | C=C[C@@]1(C)CC(=O)[C@]2(O)[C@@]3(C)[C@@H](O)CCC(C)(C)[C@@H]3[C@H](O)[C@H](OC(=O)COC(=O)CN3CCC(c4ccccc4)CC3)[C@@]2(C)O1 [drawing 49] | – |
| 0.006 µg/mL (≈ 0.00986 µM) | – | C=C[C@@]1(C)CC(=O)[C@]2(O)[C@@]3(C)[C@@H](O)CCC(C)(C)[C@@H]3[C@H](OC(=O)COC(=O)CN3CCN(C)CC3)[C@H](OC(C)=O)[C@@]2(C)O1 | – |
| – | 0.545 µg/mL (≈ 0.839 µM) | C=C[C@@]1(C)CC(=O)[C@]2(O)[C@@]3(C)[C@@H](O)CCC(C)(C)[C@@H]3[C@H](O)[C@H](OC(=O)COC(=O)CNc3cc(OC)c(OC)c(OC)c3)[C@@]2(C)O1 [drawing 48] | – |
| – | – | C=C[C@@]1(C)CC(=O)[C@]2(O)[C@@]3(C)[C@@H](O)CCC(C)(C)[C@@H]3[C@H](O)[C@H](OC(=O)COC(=O)CNC(=O)OC(C)(C)C)[C@@]2(C)O1 [1 NHBoC] | duration (of fall of B.P.) (Blood pressure in cats; 0.3 mg/kg i.v.): 35 min; fall of B.P. (Blood pressure in cats; 0.3 mg/kg i.v.): 30 mm Hg |
| 0.04 µg/mL (≈ 0.0674 µM) | – | C=C[C@@]1(C)CC(=O)[C@]2(O)[C@@]3(C)[C@@H](O)CCC(C)(C)[C@@H]3[C@H](OC(=O)COC(=O)CN3CCCCC3)[C@H](OC(C)=O)[C@@]2(C)O1 | – |
| – | – | C=C[C@@]1(C)CC(=O)[C@]2(O)[C@@]3(C)[C@@H](O)CCC(C)(C)[C@@H]3[C@H](O)[C@H](OC(=O)COC(=O)CN3CCCCC3)[C@@]2(C)O1 | duration (of fall of B.P.) (Blood pressure in cats; 0.1 mg/kg i.v.): 40 min; fall of B.P. (Blood pressure in cats; 0.1 mg/kg i.v.): 25 mm Hg |
| 0.02 µg/mL (≈ 0.0371 µM) | – | C=C[C@@]1(C)CC(=O)[C@]2(O)[C@@]3(C)[C@@H](O)CCC(C)(C)[C@@H]3[C@H](OC(=O)COC(=O)CCN)[C@H](OC(C)=O)[C@@]2(C)O1 [2 OAc NH2] | – |
| 0.072 µg/mL (≈ 0.121 µM) | – | C=C[C@@]1(C)CC(=O)[C@]2(O)[C@@]3(C)[C@@H](O)CCC(C)(C)[C@@H]3[C@H](OC(=O)COC(=O)CN3CCOCC3)[C@H](OC(C)=O)[C@@]2(C)O1 | – |
| – | – | C=C[C@@]1(C)CC(=O)[C@]2(O)[C@@]3(C)[C@@H](O)CCC(C)(C)[C@@H]3[C@H](O)[C@H](OC(=O)COC(=O)CNc3cc(OC)c(OC)c(OC)c3)[C@@]2(C)O1 [drawing 64] | duration (of fall of B.P.) (Blood pressure in cats; 1 mg/kg i.v.): 60 min; fall of B.P. (Blood pressure in cats; 1 mg/kg i.v.): 80 mm Hg |
| – | – | C=C[C@@]1(C)CC(=O)[C@]2(O)[C@@]3(C)[C@@H](O)CCC(C)(C)[C@@H]3[C@H](O)[C@H](OC(=O)COC(=O)CN3CCOCC3)[C@@]2(C)O1 [drawing 62] | duration (of fall of B.P.) (Blood pressure in cats; 0.1 mg/kg i.v.): 60 min; fall of B.P. (Blood pressure in cats; 0.1 mg/kg i.v.): 30 mm Hg |

| SMILES | EC50 (Guineapig atrium; Table IV, formula Ib) | EC50 (Guineapig atrium; Table III, formula Ia) | other results |
| --- | --- | --- | --- |
| C=C[C@@]1(C)CC(=O)[C@]2(O)[C@@]3(C)[C@@H](O)CCC(C)(C)[C@@H]3[C@H](O)[C@H](OC(=O)COC(=O)CN(C(C)C)C(C)C)[C@@]2(C)O1 [1 N[CH(CH3)2]2, 8,13-Epoxy-7β-(2-diisopropylaminoacetoxyacetoxy)-1α, 6β,9α-trihydroxylabd-14-en-11-one hydrochloride sesquihydrate] | – | 1 µg/mL | – |
| C=C[C@@]1(C)CC(=O)[C@]2(O)[C@@]3(C)[C@@H](O)CCC(C)(C)[C@@H]3[C@H](O)[C@H](OC(=O)COC(=O)CN(CC)CC)[C@@]2(C)O1 [1 N(C2 H5)2, 8,13-Epoxy-7β-(2-N,N-diethylglycinyloxyacetoxy)-1α,6β,9α-trihydroxylabd-14-en-11-one hydrochloride] | – | 0.03 µg/mL | – |
| C=C[C@@]1(C)CC(=O)[C@]2(O)[C@@]3(C)[C@@H](O)CCC(C)(C)[C@@H]3[C@H](OC(=O)COC(=O)CN(CC)CC)[C@H](OC(C)=O)[C@@]2(C)O1 [1 OAc N(C2 H5)2, 7β-Acetoxy-6β-(2-N,N-diethylaminoacetoxyacetoxy)-8,13-epoxy-1α,9α-dihydroxylabd-14-en-11-one hydrochloride sesquihydrate] | 0.03 µg/mL | – | – |
| C=C[C@@]1(C)CC(=O)[C@]2(O)[C@@]3(C)[C@@H](O)CCC(C)(C)[C@@H]3[C@H](OC(=O)COC(=O)CN(C(C)C)C(C)C)[C@H](OC(C)=O)[C@@]2(C)O1 [1 OAc N[CH(CH3)2]2, 7β-Acetoxy-6β-(2-N,N-diisopropylaminoacetoxyacetoxy)-8,13-epoxy-1α,9α-dihydroxylabd-14-en-11-one hydrochloride monohydrate] | 0.14 µg/mL | – | – |
| C=C[C@@]1(C)CC(=O)[C@]2(O)[C@@]3(C)[C@@H](O)CCC(C)(C)[C@@H]3[C@H](OC(=O)COC(=O)CN)[C@H](O)[C@@]2(C)O1 [1 OH NH2, 8,13-epoxy-6β-(2-glycinyloxyacetoxy)-1α,7β, 9α-trihydroxylabd-14-en-11-one hydrochloride] | > 10 µg/mL | – | – |
| C=C[C@@]1(C)CC(=O)[C@]2(O)[C@@]3(C)[C@@H](O)CCC(C)(C)[C@@H]3[C@H](OC(=O)COC(=O)CN)[C@H](OC(C)=O)[C@@]2(C)O1 [1 OAc NH2, 7β-acetoxy-8,13-epoxy-6β-(2-glycinyloxyacetoxy)-1α,9α-dihydroxylabd-14-en-11-one hydrochloride] | 0.008 µg/mL | – | – |
| C=C[C@@]1(C)CC(=O)[C@]2(O)[C@@]3(C)[C@@H](O)CCC(C)(C)[C@@H]3[C@H](O)[C@H](OC(=O)COC(=O)CN)[C@@]2(C)O1 [1 NH2, 8,13-Epoxy-7β-(2-glycinyloxyacetoxy)-1α,6β,9α-trihydroxylabd-14-en-11-one monohydrochloride] | – | 0.1 µg/mL | duration (of fall of B.P.) (Blood pressure in cats; 0.1 mg/kg i.v.): 120 min; fall of B.P. (Blood pressure in cats; 0.1 mg/kg i.v.): 20 mm Hg |
